Results as given in paper PMC4065102 (PLoS ONE, 2014).
Entries after “also recorded” stand apart in the source; their conditions may differ. Bridges are numbered along the chain shown (N, C = ends). Where no end group is shown, it is not given here.

B1: annexin V: Alexa488-conjugated annexin V, apoptosis probe that binds to phosphatidylserine (protein, UniProt P08758 2-320, looked up)
Annexin A5: AQVLRGTVTDFPGFDERADAETLRKAMKGLGTDEESILTLLTSRSNAQRQEISAAFKTLFGRDLLDDLKSELTGKFEKLIVALMKPSRLYDAYELKHALKGAGTNEKVLTEIIASRTPEELRAIKQVYEEEYGSSLEDDVVGDTSGYYQRMLVVLLQANRDPDAGIDEAQVEQDAQALFQAGELKWGTDEEKFITIFGTRSVSHLRKVFDKYMTISGFQIEETIDRETSGNLEQLLLAVVKSIRSIPAYLAETLYYAMKGAGTDDHTLIRVMVSRSEIDLFNIRKEFRKNFATSLYSMIKGDTSGDYKKALLLLCGEDD
modifications: Alexa488 conjugate

Experiments:
[1] = test system: SNU-16 stomach tumor xenografts; assay: Anti-tumor treatment of mice and tumor size/weight measurement; assay type: in vivo; conditions: 3 weeks after treatment; cisplatin 5 mg/kg i.p. once per week x2, cetuximab 1.5 mg/kg i.p. twice per week x4; p<0.05, p<0.05, p<0.001 (linear ApoPep-1 group); p<0.05, p<0.01, p<0.001 (cyclic group)
Method: At 3 weeks after treatment (endpoint of experiments), tumor volumes were measured and tumors were isolated for the weight measurement.
SNU-16 stomach tumor-bearing mice that were analyzed for imaging signals after the first and second round of treatment were maintained for the measurement of tumor size. […] PBS, phosphate-buffered saline; CPT, cisplatin; CET, cetuximab; CPT+CET, cisplatin plus cetuximab.

[2] = Stability of peptides in the serum; assay type: in vitro ADME, mice; conditions: mouse serum, 100 µg peptide in 50 µl PBS + 50 µl filtered serum, 37°C, up to 24 h, C18 reverse phase FPLC, absorbance 215 nm, peak identity by MALDI-TOF MS
Method: Peptide stability in the serum was examined as previously described. Blood from mice was collected and allowed to clot, and then serum was obtained by centrifugation at 4°C twice followed by filtration (0.22 µm pore). Peptide (100 µg in 50 µl of PBS) was incubated with 50 µl of filtered serum at 37°C for the indicated time period. The incubated samples were diluted 100-fold and fractionated by C18 reverse phase FPLC with linear gradient of acetonitrile (Vydac protein and peptide C18, 0.1% trifluoroacetate in water for equilibration, and 0.1% trifluoroacetate in acetonitrile for elution). To confirm the identity of the peak from the profiles of C18 reverse phase FPLC, each peak was collected, vacuum dried, and analyzed by mass spectrometry (MS) using an MALDI-TOF mass spectrometer (Life Technologies, Carlsbad, CA).
Figure 5 Stability of linear and cyclic ApoPep-1 in the serum. Linear and cyclic ApoPep-1 peptides were incubated with mouse serum at 37°C for the indicated time periods. (A) (B) Linear and cyclic form of ApoPpep-1 samples and mouse serum were fractionated by C18 reverse-phase FPLC. Y axis represents the absorbance unit at 215 nm. Each peptide peak was indicated by an arrow and separable from serum peaks. (C) (D) MS spectrum of the linear and cyclic peptide peak collected from 24 h FPLC fraction and synthetic linear and cyclic ApoPep-1.

[3] = test system: SNU-16 stomach tumor xenografts; assay: In vivo NIR fluorescence imaging of tumor apoptosis; set-up: species or system mice; conditions: for fluorescence intensity at tumor site in cisplatin plus cetuximab group compared to cisplatin alone and cetuximab alone / fluorescence intensity at tumor site in treated groups compared to untreated control group: FPR675-labeled peptide 800 nmol/kg i.v., imaging at 90 min; for fluorescence intensity at tumor site in cisplatin plus cetuximab group compared to cisplatin alone and cetuximab alone: after first and second round, linear: p<0.05/p<0.05 vs cisplatin, p<0.01/not significant vs cetuximab, cyclic: p<0.01/p<0.01 vs cisplatin, p<0.001/p<0.01 vs cetuximab; for fluorescence intensity at tumor site in treated groups compared to untreated control group: groups treated with cisplatin, cetuximab, cisplatin plus cetuximab, after first or second round of treatment, n = 3; for background fluorescence signals in other organs, including the liver and lung: whole body NIR fluorescence images, 90 min after i.v. FPR675-labeled peptide
Method: Eight-week old female athymic (nu/nu) Balb/c mice were purchased from Orient laboratories (Seongnam, Korea) and were housed under specific-pathogen-free conditions with laboratory chow and water ad libitum. Stomach tumor xenografts were established by subcutaneously injecting 1 x 10^7 SNU-16 cells in 100 µl saline into the right flank. Tumors were allowed to reach 50–60 mm^3 of volume before randomization and initiation of treatment. […] Changes in tumor size were measured over three weeks. Diameters of tumor were measured with automatic caliper. Tumor volumes were calculated using the formula: volume = (length x width x height)/2, where length, width, and height means the longest dimension, shorter dimension parallel to the mouse body, and diameter of tumor perpendicular to the length and width, respectively. Tumor weights were measured after isolation of tumor mass.
In vivo NIR fluorescence imaging was performed after the first and second round of treatment. Each treatment group (n = 6) was divided into two subgroups (n = 3) for imaging with linear and cyclic form of ApoPep-1, respectively. Linear and cyclic form of FPR675–labeled ApoPep-1 (1.45 mg/kg and 1.54 mg/kg, respectively; equivalent to 800 nmol/kg for each peptide) was injected through the tail vein into mice. At 90 min after administration, mice were anesthetized and subjected to imaging. NIR fluorescence (typically, between 650 and 1100 nm) is favored for in vivo optical imaging because of its low tissue absorption and deep tissue penetration properties. The excitation/emission wavelength of the FPR675 dye used in this study was 675/698 nm. Images were taken using the eXplore Optix optical imaging system (ART Inc., Montreal, Canada). […] The acquisition time for a whole-body scanning was 15 min per mouse. Fluorescence intensity at region of interest (ROI) was measured using a analysis software provided by the manufacturer (ART Inc.).
Figure 2 Monitoring of tumor response by in vivo imaging of apoptosis. […] After the first and second round of treatment, linear or cyclic form of FPR675 NIR fluorescence dye-labeled ApoPep-1 was intravenously injected into mice. In vivo NIR fluorescence images were taken at 90 min after administration. (A) (B) Quantification of NIR fluorescence signal intensity of the region of interest (ROI) in groups injected with linear and cyclic ApoPep-1. Bars represent the signal intensity at ROI obtained from three individual mice (mean ± S.D.). Asterisks represent statistical significance compared to PBS. Asterisks on brackets represent significance in difference between the two groups. * p<0.05, ** p<0.01, and *** p<0.001 by one-way ANOVA (n = 3 per group). (C) (D) Representative NIR fluorescence images by the uptake of linear and cyclic ApoPep-1 to tumor were shown. Scale bars represent normalized fluorescence intensity. Circles represent the ROI.

[4] = test system: SNU16 human stomach cancer cell line; assay: In vitro binding of peptides to apoptotic cells (flow cytometry); assay type: cell-based; conditions: 10 µM FITC-conjugated peptide 4°C 1 h, or Alexa488-annexin V 15 min RT
Method: SNU16 human stomach cancer cell line was purchased from KCLB (Seoul, Korea). […] After treatment, cells were incubated with 10 µM of fluorescein isothiocyanate (FITC)-conjugated linear or cyclic form of ApoPep-1 at 4°C for 1 h. As control, cells were stained with Alexa488-conjugated annexin V (Life technologies, Carlsbad, CA) for 15 min at RT. Percentages of fluorescent (peptide-bound or annexin V-bound) cells were measured by flow cytometry.
Figure 1 In vitro detection of apoptosis. […] Cells were harvested and incubated with FITC-labeled ApoPep-1 at 4°C for 1 h or with annexin V at room temperature for 15 min. Data represent percentages of apoptotic cells as measured by flow cytometry. (A-C) Percentages of apoptotic cells detected by linear form of ApoPep-1, cyclic form of ApoPep-1, and annexin V, respectively. PBS, phosphate-buffered saline; CPT, cisplatin; CET, cetuximab; CPT+CET, cisplatin plus cetuximab.

Molecule	fluorescence intensity at tumor site in cisplatin plus cetuximab group compared to cisplatin alone and cetuximab alone [3]	fluorescence intensity at tumor site in treated groups compared to untreated control group [3]	background fluorescence signals in other organs, including the liver and lung [3]	further results
N.N.[Cl][Pt][Cl] [cisplatin]	–	–	–	tumor volumes compared to untreated control [1]: reduced tumor volumes
CQRPPR [linear ApoPep-1, Linear (CQRPPR) form of ApoPep-1, histone H1-targeting peptide; used FITC-conjugated or FPR675-labeled]	higher	significantly higher	Little background fluorescence signals	amount of peptide remaining in the serum, as calculated by peak area ([2]; listed as linear form of ApoPep-1): not significantly changed up to 24 h; also recorded: stable in the presence of serum until 24 h
CQRPPRC (disulfide 1-7 (inferred)) [cyclic ApoPep-1, cyclic (CQRPPRC, disulfide bonding at amino and carboxy termini) form of ApoPep-1; used FITC-conjugated or FPR675-labeled]	remarkably higher	significantly higher	Little background fluorescence signals	amount of peptide remaining in the serum, as calculated by peak area ([2]; listed as cyclic form of ApoPep-1): not significantly changed up to 24 h; also recorded: stable in the presence of serum until 24 h
B1	–	–	–	percentages of apoptotic cells detected by the probe after treatment with cetuximab ([4]; cetuximab 200 µg/ml 24 h): ~40%; percentages of apoptotic cells detected by the probe after treatment with cisplatin ([4]; cisplatin 300 ng/ml 24 h): approximately 43%; percentages of apoptotic cells detected by the probe after treatment with cisplatin plus cetuximab ([4]; cisplatin 300 ng/ml plus cetuximab 200 µg/ml 24 h): ~45%
